According to ChEMBL document CHEMBL4028815, “Novel phosphonate analogs of sulforaphane: Synthesis, in vitro and in vivo anticancer activity” (Eur J Med Chem, 2017):
Calls of active or inactive are those of the source. The rule behind the calls is not given here.

Tests used:
LoVo/DX [1] = experiment: Cell cycle arrest in human LoVo/DX cells assessed as accumulation at G2/M phase at 15 uM after 24 hrs by propidium iodide staining based flow cytometric method; assay type: functional
LoVo/DX [2] = experiment: Cell cycle arrest in human LoVo/DX cells assessed as decrease in accumulation at G0/G1 phase at 15 uM after 24 hrs by propidium iodide staining based flow cytometric method; assay type: functional
MES-SA/Dx5 = experiment: Cytotoxicity against human MESSA/DX5 cells after 72 hrs by sulforhodamine B assay; assay type: functional, cell-based; details: MES-SA/Dx5, 72 h
Mus musculus [3] = experiment: Toxicity in BALB/c mdb mouse implanted with mouse 4T1 cells assessed as serum PLT level at 100 umol/kg, ip administered five times weekly measured at 29 day post cell innoculum (reference value: 972 +/- 157 10^3/uL); assay type: organism-based; details: in vivo, 696 h
HL-60 = experiment: Cytotoxicity against human HL60 cells after 72 hrs by sulforhodamine B assay; assay type: functional, cell-based; details: HL-60, 72 h
HL60/MX2 = experiment: Cytotoxicity against human HL60/MX2 cells after 72 hrs by sulforhodamine B assay; assay type: functional, cell-based; details: HL60/MX2, 72 h
Mus musculus [4] = experiment: Toxicity in BALB/c mdb mouse implanted with mouse 4T1 cells assessed as body weight loss at 100 umol/kg, ip administered five times weekly measured 3 times weekly during compound dosing; assay type: organism-based; details: in vivo
Mus musculus [5] = experiment: Toxicity in BALB/c mdb mouse implanted with mouse 4T1 cells assessed as serum creatinine level at 100 umol/kg, ip administered five times weekly measured at 29 day post cell innoculum (reference value: 9.3 +/- 1.2 umol/L); assay type: organism-based; details: in vivo, 696 h
LoVo [6] = experiment: Cytotoxicity against human LoVo cells assessed as cell death at >15 uM after 24 hrs; assay type: cell-based
4T1 [7] = experiment: Cytotoxicity against mouse 4T1 cells after 72 hrs by sulforhodamine B assay; assay type: functional, cell-based; details: 4T1, 72 h
BALB/3T3 = experiment: Cytotoxicity against mouse BALB/3T3 cells after 72 hrs by sulforhodamine B assay; assay type: cell-based; details: BALB/3T3, 72 h
LoVo [8] = experiment: Potency index, ratio of sulforaphane IC50 to compound IC50 for human LoVo cells; assay type: functional
A549 = experiment: Cytotoxicity against human A549 cells after 72 hrs by sulforhodamine B assay; assay type: functional, cell-based; details: A549, 72 h
4T1 [9] = experiment: Anti-tumor activity against mouse 4T1 cells implanted in BALB/c mdb mouse assessed as tumor growth inhibition at 100 umol/kg, ip administered five times weekly measured on day 29 post cell innoculum relative to control; assay type: functional; details: 4T1, ip, 696 h, read-out: TGI
[10] = Induction of apoptosis in human LoVo/DX cells assessed as increase in caspase3/7 activity at 15 uM using Ac-DEVD-ACC as substrate pretreated for 24 hrs followed by substrate addition measured for 2 hrs by fluorescence assay relative to control; assay type: functional
[11] = Cytotoxicity against human LoVo/DX cells after 72 hrs by sulforhodamine B assay; assay type: functional, cell-based
LoVo [12] = experiment: Induction of apoptosis in human LoVo cells assessed as loss of mitochondrial membrane potential at 15 uM after 24 hrs by JC-1 staining based flow cytometric method relative to control; assay type: functional
Mus musculus [13] = experiment: Toxicity in BALB/c mdb mouse implanted with mouse 4T1 cells assessed as serum AST level at 100 umol/kg, ip administered five times weekly measured at 29 day post cell innoculum (reference value: 136 +/- 10.3 U/L); assay type: organism-based; details: in vivo, 696 h
LoVo [14] = experiment: Induction of apoptosis in human LoVo cells assessed as necrotic cells at 15 uM after 24 hrs by APC-Annexin-V/propidium iodide staining based flow cytometric method (reference value: 10%); assay type: functional
[15] = Resistance index, ratio of IC50 for human HL60/MX2 cells to IC50 for human HL60 cells; assay type: functional
Mus musculus [16] = experiment: Toxicity in BALB/c mdb mouse implanted with mouse 4T1 cells assessed as hemoglobin level at 100 umol/kg, ip administered five times weekly measured at 29 day post cell innoculum (reference value: 15.1 +/- 1.5 g/dl); assay type: organism-based; details: in vivo, 696 h
LoVo [17] = experiment: Induction of apoptosis in human LoVo cells assessed as increase in caspase3/7 activity at 15 uM using Ac-DEVD-ACC as substrate pretreated for 24 hrs followed by substrate addition measured for 2 hrs by fluorescence assay relative to control; assay type: functional
LoVo [18] = experiment: Cell cycle arrest in human LoVo cells assessed as decrease in accumulation at G0/G1 phase at 15 uM after 24 hrs by propidium iodide staining based flow cytometric method; assay type: functional
[19] = Induction of apoptosis in human LoVo/DX cells assessed as loss of mitochondrial membrane potential at 15 uM after 24 hrs by JC-1 staining based flow cytometric method relative to control; assay type: functional
LoVo [20] = experiment: Induction of apoptosis in human LoVo cells assessed as increase in early apoptotic cells at 15 uM after 24 hrs by APC-Annexin-V/propidium iodide staining based flow cytometric method relative to control; assay type: functional
LoVo [21] = experiment: Cell cycle arrest in human LoVo cells assessed as accumulation at G2/M phase at 15 uM after 24 hrs by propidium iodide staining based flow cytometric method; assay type: functional
[22] = Cytotoxicity against human LoVo/DX cells assessed as cell death at >15 uM after 24 hrs; assay type: cell-based
Mus musculus [23] = experiment: Toxicity in BALB/c mdb mouse implanted with mouse 4T1 cells assessed as spleen weight at 100 umol/kg, ip administered five times weekly measured at 29 day post cell innoculum (reference value: 0.603 +/- 0.133 g); assay type: organism-based; details: in vivo, 696 h
LoVo/DX [24] = experiment: Induction of apoptosis in human LoVo/DX cells assessed as increase in caspase3/7 activity at >15 uM using Ac-DEVD-ACC as substrate pretreated for 24 hrs followed by substrate addition measured for 2 hrs by fluorescence assay; assay type: functional, cell-based
4T1 [25] = experiment: Anti-tumor activity against mouse 4T1 cells implanted in BALB/c mdb mouse assessed as tumor growth inhibition at 100 umol/kg, ip administered five times weekly measured on day 15 post cell innoculum relative to control; assay type: functional; details: 4T1, ip, 360 h, read-out: TGI
Mus musculus [26] = experiment: Toxicity in BALB/c mdb mouse implanted with mouse 4T1 cells assessed as hematocrit at 100 umol/kg, ip administered five times weekly measured at 29 day post cell innoculum (reference value: 39.9 +/- 3.7 %); assay type: organism-based; details: in vivo, 696 h
LoVo [27] = experiment: Induction of apoptosis in human LoVo cells assessed as late apoptotic cells at 15 uM after 24 hrs by APC-Annexin-V/propidium iodide staining based flow cytometric method relative to control; assay type: functional
Mus musculus [28] = experiment: Toxicity in BALB/c mdb mouse implanted with mouse 4T1 cells assessed as WBC level at 100 umol/kg, ip administered five times weekly measured at 29 day post cell innoculum (reference value: 212.3 +/- 82.8 10^3/uL); assay type: organism-based; details: in vivo, 696 h
[29] = Resistance index, ratio of IC50 for human LoVo/DX cells to IC50 for human LoVo cells; assay type: functional
LoVo [30] = experiment: Induction of apoptosis in human LoVo cells assessed as increase in caspase3/7 activity at >15 uM using Ac-DEVD-ACC as substrate pretreated for 24 hrs followed by substrate addition measured for 2 hrs by fluorescence assay; assay type: functional, cell-based
4T1 [31] = experiment: Anti-tumor activity against mouse 4T1 cells implanted in BALB/c mdb mouse assessed as lung metastasis at 100 umol/kg, ip administered five times weekly measured at 29 days post cell innoculum (reference value: 56 +/- 25); assay type: functional
MES-SA = experiment: Cytotoxicity against human MESSA cells after 72 hrs by sulforhodamine B assay; assay type: functional, cell-based

## O=P(CCCCCCN=C=S)(Oc1ccccc1)Oc1ccccc1
LoVo/DX [1]
  Activity: Active
LoVo/DX [2]
  Activity: Active
MES-SA/Dx5
  IC50: 8.3 µM
Mus musculus [3]
  Activity: 855 ×10³ /uL
HL-60
  IC50: 0.8 µM
HL60/MX2
  IC50: 3.3 µM
Mus musculus [4]
  Activity: <= 10%
Mus musculus [5]
  Activity: 8.4 µmol/L
LoVo [6]
  Activity: Toxic
4T1 [7]
  IC50: 2.9 µM
BALB/3T3
  IC50: 11.5 µM
LoVo [8]
  Ratio IC50: 10
A549
  IC50: 11.1 µM
4T1 [9]
  inhibition in vivo at 100 µmol/kg: -6.4%
[10]
  fold change (FC): 6.8
[11]
  IC50: 11.2 µM
LoVo [12]
  Activity: 79.3%
Mus musculus [13]
  Activity: 153 U/L
LoVo [14]
  Activity: 23.3%
[15]
  Ratio IC50: 4.3
Mus musculus [16]
  Activity: 20.8 g/dL
LoVo [17]
  fold change (FC): 6.8
LoVo [18]
  Activity: Active
[19]
  Activity: 67%
LoVo [20]
  Activity: inactive
LoVo [21]
  Activity: Active
[22]
  Activity: Toxic
Mus musculus [23]
  Activity: 0.632 g
LoVo/DX [24]
  Activity: inactive
4T1 [25]
  inhibition in vivo at 100 µmol/kg: 23.1%
Mus musculus [26]
  Activity: 57.6%
LoVo [27]
  Activity: 54.6%
Mus musculus [28]
  Activity: 375.9 ×10³ /uL
[29]
  Ratio IC50: 4
LoVo [30]
  Activity: inactive
4T1 [31]
  Activity: 46
MES-SA
  IC50: 10.6 µM
